Data: US12448389B2, “BRM targeting compounds and associated methods of use” (Prelude Therapeutics Incorporated, priority 2020, dated 2025)

Assays:
[1] = target: T1, SMARCA2-HiBiT (Homo sapiens, UniProt P51531); experiment: SMARCA2 HiBiT degradation assay in HeLa cells; type: cell-based; conditions: 18 hours incubation; for DC50: read-out: HeLa_HiBit-SM2 DC50; for Dmax: HeLa, read-out: HeLa-HiBit-SM2 Dmax (%)
T1 construct: SMARCA2-HiBiT knock-in Hela monoclonal cell (CS302366); host or cells: HeLa monoclonal knock-in line (CRISPR HiBiT knock-in at the endogenous locus, heterozygous)
T1 sequence (P51531 whole entry): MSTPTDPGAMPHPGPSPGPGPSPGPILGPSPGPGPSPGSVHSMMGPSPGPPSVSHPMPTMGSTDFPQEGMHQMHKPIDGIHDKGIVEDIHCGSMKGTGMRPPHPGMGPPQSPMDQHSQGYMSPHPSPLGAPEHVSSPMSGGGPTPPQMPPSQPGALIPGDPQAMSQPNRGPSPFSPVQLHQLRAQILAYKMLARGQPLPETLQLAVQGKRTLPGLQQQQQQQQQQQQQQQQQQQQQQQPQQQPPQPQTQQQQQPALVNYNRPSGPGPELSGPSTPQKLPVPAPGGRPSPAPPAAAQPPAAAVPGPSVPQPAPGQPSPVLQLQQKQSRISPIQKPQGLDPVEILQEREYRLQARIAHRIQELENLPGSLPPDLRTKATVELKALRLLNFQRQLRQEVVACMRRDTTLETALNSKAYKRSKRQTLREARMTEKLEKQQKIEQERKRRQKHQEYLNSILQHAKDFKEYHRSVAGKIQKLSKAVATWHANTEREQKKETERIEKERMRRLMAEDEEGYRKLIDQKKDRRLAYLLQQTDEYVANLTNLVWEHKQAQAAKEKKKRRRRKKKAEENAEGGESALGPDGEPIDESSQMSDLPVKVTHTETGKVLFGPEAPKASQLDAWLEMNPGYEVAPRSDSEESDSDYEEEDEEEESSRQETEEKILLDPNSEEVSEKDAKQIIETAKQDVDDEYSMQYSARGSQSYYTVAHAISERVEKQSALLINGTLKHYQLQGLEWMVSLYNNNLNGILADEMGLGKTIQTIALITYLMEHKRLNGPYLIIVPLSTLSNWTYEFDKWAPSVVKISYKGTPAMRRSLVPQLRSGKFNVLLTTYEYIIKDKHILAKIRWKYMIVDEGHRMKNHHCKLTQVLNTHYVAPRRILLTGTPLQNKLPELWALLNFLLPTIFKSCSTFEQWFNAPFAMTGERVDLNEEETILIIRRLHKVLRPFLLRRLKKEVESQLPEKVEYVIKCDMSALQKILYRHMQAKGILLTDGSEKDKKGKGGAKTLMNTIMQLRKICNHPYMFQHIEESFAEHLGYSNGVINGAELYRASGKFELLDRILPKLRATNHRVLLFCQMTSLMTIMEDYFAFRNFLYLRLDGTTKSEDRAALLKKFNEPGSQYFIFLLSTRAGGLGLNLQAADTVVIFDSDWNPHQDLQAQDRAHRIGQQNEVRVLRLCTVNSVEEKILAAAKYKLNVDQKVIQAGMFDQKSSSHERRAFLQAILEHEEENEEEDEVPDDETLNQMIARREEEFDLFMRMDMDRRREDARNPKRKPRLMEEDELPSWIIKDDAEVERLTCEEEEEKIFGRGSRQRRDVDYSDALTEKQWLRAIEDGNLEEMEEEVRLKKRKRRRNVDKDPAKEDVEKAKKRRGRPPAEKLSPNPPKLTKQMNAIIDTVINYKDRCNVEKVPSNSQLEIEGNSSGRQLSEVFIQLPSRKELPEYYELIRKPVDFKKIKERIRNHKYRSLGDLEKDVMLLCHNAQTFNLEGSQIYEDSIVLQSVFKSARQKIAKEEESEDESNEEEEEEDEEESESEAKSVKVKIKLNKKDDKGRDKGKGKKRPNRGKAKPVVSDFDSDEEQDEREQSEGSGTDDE
Summary of the method: (§1)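 HeLa monoclonal lines with heterozygous HiBiT knock-in were seeded at 2500 cells/well in EMEM with 10% FBS and treated with compound for 18 h at 37 °C. Remaining tagged protein was measured by Nano-Glo HiBiT lytic luminescence after 30–60 min at RT, and values came from curve fitting.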

[2] = target: T2, SMARCA4-HiBiT (Homo sapiens, UniProt P51532); experiment: SMARCA4 HiBiT degradation assay in HeLa cells; type: cell-based; conditions: 18 hours incubation; for DC50: read-out: HeLa-HiBit-SM4 DC50; for Dmax: HeLa, read-out: HeLa-HiBit-SM4 Dmax (%)
T2 construct: SMARCA4-HiBiT knock-in Hela monoclonal cell (CS3023226); host or cells: HeLa monoclonal knock-in line (CRISPR HiBiT knock-in at the endogenous locus, heterozygous)
T2 sequence (P51532 whole entry): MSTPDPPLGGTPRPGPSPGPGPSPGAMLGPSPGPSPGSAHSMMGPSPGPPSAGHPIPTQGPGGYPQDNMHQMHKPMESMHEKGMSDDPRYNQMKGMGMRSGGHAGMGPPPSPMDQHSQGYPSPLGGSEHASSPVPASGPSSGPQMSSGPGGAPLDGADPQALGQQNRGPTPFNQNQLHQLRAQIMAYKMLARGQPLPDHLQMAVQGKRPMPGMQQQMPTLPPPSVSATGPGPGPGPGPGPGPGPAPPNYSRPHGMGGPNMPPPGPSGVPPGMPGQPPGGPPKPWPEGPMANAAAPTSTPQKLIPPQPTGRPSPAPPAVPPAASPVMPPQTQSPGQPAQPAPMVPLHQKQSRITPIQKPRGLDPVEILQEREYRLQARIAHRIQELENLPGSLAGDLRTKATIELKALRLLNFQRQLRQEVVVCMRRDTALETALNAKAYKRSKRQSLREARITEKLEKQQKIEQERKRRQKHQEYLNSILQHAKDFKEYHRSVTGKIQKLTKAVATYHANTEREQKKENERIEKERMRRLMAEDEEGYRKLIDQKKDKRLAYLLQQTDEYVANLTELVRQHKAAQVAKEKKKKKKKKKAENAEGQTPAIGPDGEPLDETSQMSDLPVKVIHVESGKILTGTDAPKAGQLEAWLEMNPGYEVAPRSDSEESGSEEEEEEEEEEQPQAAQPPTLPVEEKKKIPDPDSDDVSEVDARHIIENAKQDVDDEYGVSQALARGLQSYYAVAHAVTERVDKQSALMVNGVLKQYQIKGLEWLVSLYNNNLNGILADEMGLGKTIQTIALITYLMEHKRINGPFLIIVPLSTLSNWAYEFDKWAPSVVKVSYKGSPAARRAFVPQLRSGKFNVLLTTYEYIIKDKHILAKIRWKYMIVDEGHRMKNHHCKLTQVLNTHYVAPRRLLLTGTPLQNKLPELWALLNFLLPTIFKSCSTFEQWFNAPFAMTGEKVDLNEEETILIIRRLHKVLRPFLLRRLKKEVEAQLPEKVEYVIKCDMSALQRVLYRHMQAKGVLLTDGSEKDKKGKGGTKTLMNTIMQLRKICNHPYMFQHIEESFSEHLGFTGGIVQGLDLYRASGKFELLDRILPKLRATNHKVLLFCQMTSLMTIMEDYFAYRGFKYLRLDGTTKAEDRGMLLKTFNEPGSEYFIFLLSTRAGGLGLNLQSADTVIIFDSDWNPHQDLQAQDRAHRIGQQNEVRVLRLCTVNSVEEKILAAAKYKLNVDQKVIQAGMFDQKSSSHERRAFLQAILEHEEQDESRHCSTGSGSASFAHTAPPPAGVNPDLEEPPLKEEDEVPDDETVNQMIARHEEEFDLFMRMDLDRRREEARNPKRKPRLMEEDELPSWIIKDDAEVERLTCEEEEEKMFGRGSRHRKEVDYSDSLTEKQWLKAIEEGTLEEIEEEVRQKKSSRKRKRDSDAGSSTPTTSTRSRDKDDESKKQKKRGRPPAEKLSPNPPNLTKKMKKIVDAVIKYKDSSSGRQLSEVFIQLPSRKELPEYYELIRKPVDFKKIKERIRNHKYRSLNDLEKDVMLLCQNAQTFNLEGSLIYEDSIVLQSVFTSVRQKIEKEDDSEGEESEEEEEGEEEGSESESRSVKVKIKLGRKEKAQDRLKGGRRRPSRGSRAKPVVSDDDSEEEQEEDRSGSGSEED
Summary of the method: as §1

SMILES: O=C1CCC(N2C(=O)c3ccc(N4CCCC(N5CCC(CN6CCN7c8cc(-c9ccccc9O)nnc8NC[C@H]7C6)CC5)C4)cc3C2=O)C(=O)N1 (stereo partly drawn) [Example 218, 2-(2,6-dioxopiperidin-3-yl)-5-(4-(((S)-2-(2-hydroxyphenyl)-5,6,6a,7,9,10-hexahydro-8H-pyrazino[1′,2′:4,5]pyrazino[2,3-c]pyridazin-8-yl)methyl)-[1,3′-bipiperidin]-1′-yl) isoindoline-1,3-dione]
- DC50 [1]: < 0.01 µM
- Dmax [1]: > 85%
- DC50 [2]: < 0.01 µM
- Dmax [2]: 75 to 85%

SMILES: O=C1CCC(N2C(=O)c3ccc(N4CC(CN5CCC(C(=O)N6CCN7c8cc(-c9ccccc9O)nnc8NC[C@H]7C6)CC5)C4)cc3C2=O)C(=O)N1 (stereo partly drawn) [Example 86, 2-(2,6-dioxopiperidin-3-yl)-5-(3-((4-((S)-2-(2-hydroxyphenyl)-6,6a,7,8,9,10-hexahydro-5H-pyrazino[1′,2′:4,5]pyrazino[2,3-c]pyridazine-8-carbonyl)piperidin-1-yl)methyl)azetidin-1-yl)isoindoline-1,3-dione]
- DC50 [1]: < 0.01 µM
- Dmax [1]: > 85%
- DC50 [2]: 0.01 to 0.1 µM
- Dmax [2]: 50 to 75%

SMILES: O=C1CCC(N2C(=O)c3ccc(N4CCC(CN5CCC(N6CCN7c8cc(-c9ccccc9O)nnc8NC[C@H]7C6)CC5)CC4)cc3C2=O)C(=O)N1 (stereo partly drawn) [Example 30, 2-(2,6-dioxopiperidin-3-yl)-5-(4-((4-((S)-2-(2-hydroxyphenyl)-5,6,6a,7,9,10-hexahydro-8H-pyrazino[1′,2′:4,5]pyrazino[2,3-c]pyridazin-8-yl)piperidin-1-yl)methyl)piperidin-1-yl)isoindoline-1,3-dione]
- DC50 [1]: < 0.01 µM
- Dmax [1]: > 85%
- DC50 [2]: < 0.01 µM
- Dmax [2]: > 85%

SMILES: COC1(CN2CCN3c4cc(-c5ccccc5O)nnc4NC[C@H]3C2)CCN(CC2CCN(c3ccc4c(c3)CN(C3CCC(=O)NC3=O)C4=O)CC2)CC1 (stereo partly drawn) [Example 251, 3-(5-(4-((4-(((S)-2-(2-hydroxyphenyl)-5,6,6a,7,9,10-hexahydro-8H-pyrazino[1′,2′:4,5]pyrazino[2,3-c]pyridazin-8-yl)methyl)-4-methoxypiperidin-1-yl)methyl)piperidin-1-yl)-1-oxoisoindolin-2-yl)piperidine-2,6-dione]
- DC50 [1]: < 0.01 µM
- Dmax [1]: > 85%
- DC50 [2]: < 0.01 µM
- Dmax [2]: > 85%

SMILES: O=C1CCC(N2Cc3ccc(N4CCC(CN5Cc6cnc(N7CCN8c9cc(-c%10ccccc%10O)nnc9NC[C@H]8C7)nc6C5)CC4)cc3C2=O)C(=O)N1 (stereo partly drawn) [Example 61, 3-(6-(4-((2-((S)-2-(2-hydroxyphenyl)-5,6,6a,7,9,10-hexahydro-8H-pyrazino[1′,2′:4,5]pyrazino[2,3-c]pyridazin-8-yl)-5,7-dihydro-6H-pyrrolo[3,4-d]pyrimidin-6-yl)methyl)piperidin-1-yl)-1-oxoisoindolin-2-yl)piperidine-2,6-dione]
- DC50 [1]: < 0.01 µM
- Dmax [1]: ≤ 50%
- DC50 [2]: < 0.01 µM
- Dmax [2]: ≤ 50%

SMILES: CC1CN(CC2CCN(c3ccc4c(c3)C(=O)N(C3CCC(=O)NC3=O)C4=O)CC2)CCC1CN1CCN2c3cc(-c4ccccc4O)nnc3NC[C@H]2C1 (stereo partly drawn) [Example 161, 2-(2,6-dioxopiperidin-3-yl)-5-(4-((4-(((S)-2-(2-hydroxyphenyl)-5,6,6a,7,9,10-hexahydro-8H-pyrazino[1′,2′:4,5]pyrazino[2,3-c]pyridazin-8-yl)methyl)-3-methylpiperidin-1-yl)methyl)piperidin-1-yl)isoindoline-1,3-dione]
- DC50 [1]: < 0.01 µM
- Dmax [1]: > 85%
- DC50 [2]: < 0.01 µM
- Dmax [2]: > 85%

SMILES: O=C1CCC(N2C(=O)c3cccc(N4CCC(N5CCC(N6CCN7c8cc(-c9ccccc9O)nnc8NC[C@H]7C6)CC5)CC4)c3C2=O)C(=O)N1 (stereo partly drawn) [Example 66, 2-(2,6-dioxopiperidin-3-yl)-4-(4-((S)-2-(2-hydroxyphenyl)-5,6,6a,7,9,10-hexahydro-8H-pyrazino[1′,2′:4,5]pyrazino[2,3-c]pyridazin-8-yl)-[1,4′-bipiperidin]-1′-yl) isoindoline-1,3-dione]
- DC50 [1]: < 0.01 µM
- Dmax [1]: > 85%
- DC50 [2]: < 0.01 µM
- Dmax [2]: > 85%

SMILES: CC1(CN2C[C@@H]3[C@@H](CN4CCN5c6cc(-c7ccccc7O)nnc6NC[C@H]5C4)[C@@H]3C2)CCN(c2ccc3c(c2)C(=O)N(C2CCC(=O)NC2=O)C3=O)C1 (stereo partly drawn) [Example 151, 2-(2,6-dioxopiperidin-3-yl)-5-(3-(((1R,5S,6r)-6-(((S)-2-(2-hydroxyphenyl)-5,6,6a,7,9,10-hexahydro-8H-pyrazino[1′,2′:4,5]pyrazino[2,3-c]pyridazin-8-yl)methyl)-3-azabicyclo[3.1.0]hexan-3-yl)methyl)-3-methylpyrrolidin-1-yl)isoindoline-1,3-dione]
- DC50 [1]: < 0.01 µM
- Dmax [1]: 75 to 85%
- DC50 [2]: 0.01 to 0.1 µM
- Dmax [2]: 50 to 75%

SMILES: O=C1CCC(NC(=O)c2ccc(N3CCC(CN4CCC(N5CCN6c7cc(-c8ccccc8O)nnc7NC[C@H]6C5)CC4)CC3)cn2)C(=O)N1 (stereo partly drawn) [Example 24, N-(2,6-dioxopiperidin-3-yl)-5-(4-((4-((S)-2-(2-hydroxyphenyl)-5,6,6a,7,9,10-hexahydro-8H-pyrazino[1′,2′:4,5]pyrazino[2,3-c]pyridazin-8-yl)piperidin-1-yl)methyl)piperidin-1-yl)picolinamide]
- DC50 [1]: < 0.01 µM
- Dmax [1]: > 85%
- DC50 [2]: < 0.01 µM
- Dmax [2]: 75 to 85%

SMILES: O=C1CCC(N2C(=O)c3ccc(N4CCOC(CN5C[C@@H]6[C@H](C5)[C@H]6CN5CCN6c7cc(-c8ccccc8O)nnc7NC[C@H]6C5)C4)cc3C2=O)C(=O)N1 (stereo partly drawn) [Example 49, 2-(2,6-dioxopiperidin-3-yl)-5-(2-(((1R,5S,6s)-6-(((S)-2-(2-hydroxyphenyl)-5,6,6a,7,9,10-hexahydro-8H-pyrazino[1′,2′:4,5]pyrazino[2,3-c]pyridazin-8-yl)methyl)-3-azabicyclo[3.1.0]hexan-3-yl)methyl)morpholino)isoindoline-1,3-dione]
- DC50 [1]: < 0.01 µM
- Dmax [1]: > 85%
- DC50 [2]: < 0.01 µM
- Dmax [2]: 75 to 85%

SMILES: C[C@H]1CN(CC2CCN(c3ccc4c(c3)C(=O)N(C3CCC(=O)NC3=O)C4)CC2)CCN1C(=O)N1CCN2c3cc(-c4ccccc4O)nnc3NC[C@H]2C1 (stereo partly drawn) [Example 112, 3-(6-(4-(((S)-4-((S)-2-(2-hydroxyphenyl)-6,6a,7,8,9,10-hexahydro-5H-pyrazino[1′,2′:4,5]pyrazino[2,3-c]pyridazine-8-carbonyl)-3-methylpiperazin-1-yl)methyl)piperidin-1-yl)-1-oxoisoindolin-2-yl)piperidine-2,6-dione]
- DC50 [1]: < 0.01 µM
- Dmax [1]: > 85%
- DC50 [2]: < 0.01 µM
- Dmax [2]: 75 to 85%

SMILES: CC1CN(c2ccc3c(c2)C(=O)N(C2CCC(=O)NC2=O)C3=O)CCC1CN1C[C@@H]2[C@H](C1)[C@H]2CN1CCN2c3cc(-c4ccccc4O)nnc3NC[C@H]2C1 (stereo partly drawn) [Example 198, 2-(2,6-dioxopiperidin-3-yl)-5-(4-(((1R,5S,6r)-6-(((S)-2-(2-hydroxyphenyl)-5,6,6a,7,9,10-hexahydro-8H-pyrazino[1′,2′:4,5]pyrazino[2,3-c]pyridazin-8-yl)methyl)-3-azabicyclo[3.1.0]hexan-3-yl)methyl)-3-methylpiperidin-1-yl)isoindoline-1,3-dione]
- HeLa-HiBit-SM2 Dmax (%) [1]: A (A=Dmax>85%)
- DC50 [1]: < 0.01 µM
- HeLa-HiBit-SM4 Dmax (%) [2]: C (C=50%<Dmax<=75%)
- DC50 [2]: < 0.01 µM

SMILES: O=C1CCC(N2C(=O)c3ccc(N4CCC(CN5CCCC(CN6CCN7c8cc(-c9ccccc9O)nnc8NC[C@H]7C6)C5)CC4)cc3C2=O)C(=O)N1 (stereo partly drawn) [Example 35, 2-(2,6-dioxopiperidin-3-yl)-5-(4-((3-(((S)-2-(2-hydroxyphenyl)-5,6,6a,7,9,10-hexahydro-8H-pyrazino[1′,2′:4,5]pyrazino[2,3-c]pyridazin-8-yl)methyl)piperidin-1-yl)methyl)piperidin-1-yl)isoindoline-1,3-dione]
- DC50 [1]: < 0.01 µM
- Dmax [1]: 75 to 85%
- DC50 [2]: < 0.01 µM
- Dmax [2]: 50 to 75%

SMILES: O=C1CCC(N2Cc3cc(N4CCC(CN5CCC(CN6CCN7c8cc(-c9ccccc9O)nnc8NC[C@H]7C6)CC5)CC4)c(F)cc3C2=O)C(=O)N1 (stereo partly drawn) [Example 234, 3-(6-fluoro-5-(4-((4-(((S)-2-(2-hydroxyphenyl)-5,6,6a,7,9,1O-hexahydro-8H-pyrazino[1′,2′:4,5]pyrazino[2,3-c]pyridazin-8-yl)methyl)piperidin-1-yl)methyl)piperidin-1-yl)-1-oxoisoindolin-2-yl)piperidine-2,6-dione]
- DC50 [1]: < 0.01 µM
- Dmax [1]: > 85%
- DC50 [2]: < 0.01 µM
- Dmax [2]: > 85%

SMILES: O=C1CCC(N2C(=O)c3ccc(N4CCC(CNC56CCC(C(=O)N7CCN8c9cc(-c%10ccccc%10O)nnc9NC[C@H]8C7)(CC5)CC6)CC4)cc3C2=O)C(=O)N1 (stereo partly drawn) [Example 81, 2-(2,6-dioxopiperidin-3-yl)-5-(4-(((4-((S)-2-(2-hydroxyphenyl)-6,6a,7,8,9,10-hexahydro-5H-pyrazino[1′,2′:4,5]pyrazino[2,3-c]pyridazine-8-carbonyl)bicyclo[2.2.2]octan-1-yl)amino)methyl)piperidin-1-yl)isoindoline-1dione]
- DC50 [1]: < 0.01 µM
- Dmax [1]: 75 to 85%
- DC50 [2]: < 0.01 µM
- Dmax [2]: 75 to 85%

SMILES: O=C1CCC(N2Cc3cc(N4CCO[C@H](CN5C[C@@H]6[C@H](C5)[C@H]6CN5CCN6c7cc(-c8ccccc8O)nnc7NC[C@H]6C5)C4)ccc3C2=O)C(=O)N1 (stereo partly drawn) [Example 268, 3-(5-((R)-2-(((1R,5S,6S)-6-(((S)-2-(2-hydroxyphenyl)-5,6,6a,7,9,10-hexahydro-8H-pyrazino[1′,2′:4,5]pyrazino[2,3-c]pyridazin-8-yl)methyl)-3-azabicyclo[3.1.0]hexan-3-yl)methyl)morpholino)-1-oxoisoindolin-2-yl)piperidine-2,6-dione]
- DC50 [1]: < 0.01 µM
- Dmax [1]: 75 to 85%
- DC50 [2]: < 0.01 µM
- Dmax [2]: 50 to 75%
